These are literature values, as cited in US5854247A, “Piperazine, piperidine and tetrahydropyridine derivatives useful as 5-HT1 recepter agonists” (Merck Sharp & Dohme Ltd., priority 1994, dated 1998).

Each structure is given as a SMILES string.

The conditions of the data set: humans, therapeutic doses.

Regarding `CNS(=O)(=O)Cc1ccc2[nH]cc(CCN(C)C)c2c1` [sumatriptan], the adverse cardiovascular events result is recorded as “certain adverse cardiovascular events”.
